*1 amine or outer side, *2 acyl side, *3 side chain or, on linkers, in order; H or OH if unused. Where a SMILES comes first, the peptide text is derived from it. Side-chain parts run from the residue outwards. [ ]: non-standard residue; d: D form. The star is where a group is joined. C20 diacid = O=C(O)CCCCCCCCCCCCCCCCCCC(=O)*; γGlu = O=C(O)[C@H](CCC(=O)[*:2])N[*:1]; NMeI = CC[C@H](C)[C@H](NC)C(=O)O; αMeL = CC(C)C[C@](C)(N)C(=O)O; AEEA = NCCOCCOCC(=O)O
Assays:
[1] = Association state determination by Sedimentation Velocity Analytical UltraCentrifugation (SV-AUC); type: physicochemical
Procedure: SV-AUC was performed at 20° C. using a Beckman Optima with AN 60 Ti rotor and final rotor speed of 60,000 rpm. Peptides were dialyzed into 5 mM phosphate pH 7 or 1× phosphate buffered saline (PBS) pH 7.2. Samples were adjusted to the desired concentration (0.1 mg/mL, 1 mg/mL, or 10 mg/mL) using relevant buffer as needed. Both samples and buffer were passed through […] PVDF centrifugal filter units. The filtered samples were loaded into the sample sectors of the cells; filtered buffer alone was loaded in the reference sector of the cells. A Wavelength Scan was performed as the first step to choose a suitable lambda […] value for the given compound with 1-1.2 OD at the concentration(s) tested; this value was generally between 225 nm and 254 nm and used for Method Scan in the next step. In the Method Scan, both absorbance and interference detection modules were used. Temperature equilibration was set as first stage with 0 rpm rotor speed for 3 hours. Sedimentation velocity was set as second stage with rotor speed at 60,000 rpm. 300 scans with frequency of 60 seconds or 500 scan counts with frequency of 120 seconds were performed at the designated wavelength. Data were analyzed with SEDFIT software wherein a continuous c(s) distribution model was applied; the setting of relevant parameters is shown in Table 4 and Table 5; sedimentation coefficient (s) values were reported in Svedherg units (S).
The experiment to characterize a compound comprising SEQ ID NO:54 was performed at 300 scan counts with frequency of 60 seconds; for all other tested polypeptides, the experiments were performed at 500 scan counts with frequency of 120 seconds.

[2] = target: T1, CRHR1 receptor (Y79 cells) (Homo sapiens, UniProt P34998); assay: Human Y79 cAMP assay (native cell line expressing endogenous CRHR1); type: cell-based; settings: human Y79 cells (CRHR1, no detectable CRHR2); mean ± SE
T1 construct: host or cells: Y79 human retinoblastoma cells
T1 sequence (P34998 24-415): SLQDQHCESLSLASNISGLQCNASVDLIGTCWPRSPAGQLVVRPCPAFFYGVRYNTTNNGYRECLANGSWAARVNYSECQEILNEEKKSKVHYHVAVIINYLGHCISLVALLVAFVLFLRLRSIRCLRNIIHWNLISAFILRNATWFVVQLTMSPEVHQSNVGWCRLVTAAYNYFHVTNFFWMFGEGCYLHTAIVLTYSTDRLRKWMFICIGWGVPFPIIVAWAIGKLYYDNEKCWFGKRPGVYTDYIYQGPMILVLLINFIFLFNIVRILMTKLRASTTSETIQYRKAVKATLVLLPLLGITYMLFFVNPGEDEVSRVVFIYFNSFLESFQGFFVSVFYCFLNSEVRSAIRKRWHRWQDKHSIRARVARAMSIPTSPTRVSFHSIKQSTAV
Procedure: Y79 cells, a human retinoblastoma cell line, express a high level of human CRHR1 with no detectable CRHR2. A7r5 cells, a rat aortic smooth muscle cell line, only express CRHR2 receptor with no detectable CRHR1. The rat CRHR2 gene shares 93% homology of nucleotides sequences with human CRHR2 and responds to human UCN2. Therefore, these two native cell lines were used for additional characterization of polypeptide selectivity.
Y79 cells were grown in a suspension culture as recommended by ATCC in the media containing RPMI (Gibco Cat #11875093) and 20% FBS (Gibco dialyzed Cat #26400044). Y79 cells were incubated at 37° C. with 5% CO2. A subcultivation was performed by removing the supernatant after centrifugation and suspending the cell pellet in fresh medium (A subcultivation ratio was 1:5). […]
The amount of intracellular cAMP was quantitated using HTRF technology (Homogeneous Time Resolved Fluorescence; Cisbio) as per vendor instructions. […] The HTRF signal was immediately detected using an Envision plate reader (Perkin-Elmer) to calculate the ratio of fluorescence at 665 to 620 nm. […]
Raw fluorescence data for concentration curves of the peptides in Table 2 and Table 3 were converted to cAMP amount (pmol/well) using a cAMP standard curve generated for each experiment.

[3] = 0.1 mg/mL, 1x PBS, pH 7.2, 20° C.

Row | Mw (SEDFIT), apparent molecular weight [1, 3] | Sedimentation Coefficient [1, 3] | Sedimentation Coefficient species (% of total) [1, 3] | EC50 [2] | Compound | self-association state from sedimentation coefficients ([1]; 0.1, 1 and 10 mg/mL for SEQ ID NO:54)
1 | 38787 Da | 3.5 S | 89% |  | CC[C@H](C)[C@H](NC)C(=O)N[C@H](C(=O)N[C@@H](CC(C)C)C(=O)N[C@@H](CO)C(=O)N[C@@H](CC(C)C)C(=O)N[C@@H](CC(=O)O)C(=O)N[C@H](C(=O)N1CCC[C@H]1C(=O)N[C@H](C(=O)NCC(=O)N[C@@H](CC(C)C)C(=O)N[C@@H](CC(C)C)C(=O)N[C@@H](CCC(N)=O)C(=O)N[C@H](C(=O)N[C@@H](CC(C)C)C(=O)N[C@@H](CC(C)C)C(=O)N[C@@H](CCC(=O)O)C(=O)N[C@@H](CCC(N)=O)C(=O)N[C@@H](CCC(=O)O)C(=O)N[C@@H](CCCCN)C(=O)N[C@@H](CCC(N)=O)C(=O)N[C@@H](CCC(=O)O)C(=O)N[C@@H](CCCCN)C(=O)N[C@@H](CCC(=O)O)C(=O)N[C@@H](CCCCN)C(=O)N[C@@H](CCC(N)=O)C(=O)N[C@@H](CCC(N)=O)C(=O)N[C@@H](C)C(=O)N[C@@H](CCCCNC(=O)COCCOCCNC(=O)COCCOCCNC(=O)CC[C@H](NC(=O)CC[C@H](NC(=O)CCCCCCCCCCCCCCCCCCC(=O)O)C(=O)O)C(=O)O)C(=O)N[C@H](C(=O)N[C@@H](CC(N)=O)C(=O)N[C@@H](C)C(=O)N[C@@H](CCC(N)=O)C(=O)N[C@H](C(=O)N[C@@H](CC(C)C)C(=O)N[C@@H](C)C(=O)N[C@@H](CCC(N)=O)C(=O)N[C@H](C(N)=O)C(C)C)[C@@H](C)CC)[C@@H](C)O)[C@@H](C)CC)[C@@H](C)CC)C(C)C)C(C)C [SEQ ID NO: 54] (H-[NMeI]VLSLDVPIGLLQILLEQEKQEKEKQQAK([AEEA-AEEA-γGlu-γGlu-C20 diacid])TNAQILAQV-NH2) | higher order oligomers were the major species
2 |  |  |  | > 1e+07 pM | CC[C@H](C)[C@H](NC)C(=O)N[C@H](C(=O)N[C@H](C(=O)N[C@@H](CO)C(=O)N[C@@H](CC(C)C)C(=O)N[C@@H](CC(=O)O)C(=O)N[C@H](C(=O)N1CCC[C@H]1C(=O)N[C@H](C(=O)NCC(=O)N[C@@](C)(CC(C)C)C(=O)N[C@@H](CC(C)C)C(=O)N[C@@H](CCC(N)=O)C(=O)N[C@@H](CCCCN)C(=O)N[C@@H](CC(C)C)C(=O)N[C@H](C(=O)N[C@@H](CCC(=O)O)C(=O)N[C@@H](CCC(N)=O)C(=O)N[C@@H](CCC(=O)O)C(=O)N[C@@H](CCCCN)C(=O)N[C@@H](CCC(N)=O)C(=O)N[C@@H](CCC(=O)O)C(=O)N[C@@H](CCCCN)C(=O)N[C@@H](CCC(=O)O)C(=O)N[C@@H](CCCCN)C(=O)N[C@@H](CCC(N)=O)C(=O)N[C@@H](CCC(N)=O)C(=O)N[C@@H](C)C(=O)N[C@@H](CCCCNC(=O)COCCOCCNC(=O)COCCOCCNC(=O)CC[C@H](NC(=O)CCCCCCCCCCCCCCCCCCC(=O)O)C(=O)O)C(=O)N[C@@H](CCC(=O)O)C(=O)N[C@@H](CC(N)=O)C(=O)N[C@H](C(=O)N[C@@H](CCC(=O)O)C(=O)N[C@H](C(=O)N[C@@H](CC(C)C)C(=O)N[C@@H](C)C(=O)N[C@@H](CCC(N)=O)C(=O)N[C@H](C(N)=O)C(C)C)[C@@H](C)CC)[C@@H](C)O)[C@@H](C)CC)[C@@H](C)CC)C(C)C)[C@@H](C)O)C(C)C [SEQ ID NO: 49, (NMeI) VTSLDVPIG αMeL LQKLIEQEKQEKEKQQAK((2-[2-(2-Amino-ethoxy)-ethoxy]-acetyl)2-γE-CO-(CH2)18-CO2H)ENTEILAQV-NH2] (H-[NMeI]VTSLDVPIG[αMeL]LQKLIEQEKQEKEKQQAK([AEEA-AEEA-γGlu-C20 diacid])ENTEILAQV-NH2) | 
3 |  |  |  | > 1e+07 pM | CC[C@H](C)[C@H](NC)C(=O)N[C@H](C(=O)N[C@H](C(=O)N[C@@H](CO)C(=O)N[C@@H](CC(C)C)C(=O)N[C@@H](CC(=O)O)C(=O)N[C@H](C(=O)N1CCC[C@H]1C(=O)N[C@H](C(=O)NCC(=O)N[C@@](C)(CC(C)C)C(=O)N[C@@H](CC(C)C)C(=O)N[C@@H](CCC(N)=O)C(=O)N[C@@H](CCCCN)C(=O)N[C@@H](CC(C)C)C(=O)N[C@@H](CC(C)C)C(=O)N[C@@H](CCC(=O)O)C(=O)N[C@@H](CCC(N)=O)C(=O)N[C@@H](CCC(=O)O)C(=O)N[C@@H](CCCNC(=N)N)C(=O)N[C@@H](C)C(=O)N[C@@H](CCC(=O)O)C(=O)N[C@@H](CCCCN)C(=O)N[C@@H](C)C(=O)N[C@@H](CCCNC(=N)N)C(=O)N[C@@H](CCC(N)=O)C(=O)N[C@@H](CCC(N)=O)C(=O)N[C@@H](C)C(=O)N[C@@H](CCCCNC(=O)COCCOCCNC(=O)COCCOCCNC(=O)CC[C@H](NC(=O)CCCCCCCCCCCCCCCCCCC(=O)O)C(=O)O)C(=O)N[C@@H](CCC(=O)O)C(=O)N[C@@H](C)C(=O)N[C@@H](C)C(=O)N[C@@H](CCC(=O)O)C(=O)N[C@H](C(=O)N[C@@H](CC(C)C)C(=O)N[C@@H](C)C(=O)N[C@@H](CCC(N)=O)C(=O)N[C@H](C(N)=O)C(C)C)[C@@H](C)CC)[C@@H](C)CC)C(C)C)[C@@H](C)O)C(C)C [SEQ ID NO: 50, (NMeI) VTSLDVPIG αMeL LQKLLEQERAEKARQQAK((2-[2-(2-Amino-ethoxy)-ethoxy]-acetyl)2-γE-CO-(CH2)18-CO2H)EAAEILAQV-NH2] (H-[NMeI]VTSLDVPIG[αMeL]LQKLLEQERAEKARQQAK([AEEA-AEEA-γGlu-C20 diacid])EAAEILAQV-NH2) | 
